Measurements reported in patent publication US8802712B2, “Pyrazoloquinolines” (Merck Patent GmbH, priority 2010, dated 2014).

The compounds below were run against DNA-PK (Homo sapiens (Human), UniProt P78527) (assay: DNA-PK/Biochemical Assay (FlashPlate kinase assay)). Conditions: 5 μM ATP, 90 min, room temperature.
Experimental: The kinase assay was carried out in streptavidin-coated […] microtitre FlashPlates®. To this end, 1.5 μg of the DNA-PK/protein complex and 100 ng of biotinylated substrate, such as, for example, […] biotin-NH2 (“biotin-DNA-PK peptide”), in a total volume of 36.5 μl (34.25 mM HEPES/KOH, 7.85 mM Tris-HCl, 68.5 mM KCl, 5 μM ATP, 6.85 mM MgCl2, 0.5 mM EDTA, 0.14 mM EGTA, 0.69 mM DTT, pH 7.4), were incubated at room temperature for 90 min with 500 ng of DNA from calf thymus, 0.1 μCi of 33P-ATP and 1.8% of DMSO per well with or without the test compound. The reaction was stopped using 50 μl/well of 200 mM EDTA. After incubation for a further 30 min at room temperature, the liquid was removed. Each well was washed three times with 100 μl of 0.9% sodium chloride solution. A non-specific reaction (blank value) was determined using 10 μM of a proprietary kinase inhibitor. The radioactivity measurement was carried out by means of a TopCount. IC50 values were calculated in RS1. • Literature: Kashishian et al. (2003) Molecular Cancer Therapeutics 1257.

`COc1cc2ncc3c(c(-c4ccc(C#N)cc4)nn3C)c2cc1OC(C(=O)O)c1cccs1` (centres unmarked) [Compound 21, [1-(4-Cyanophenyl)-7-methoxy-3-methyl-3H-pyrazolo[3,4-c]quinolin-8-yloxy]thiophen-2-ylacetic acid] and `COc1cc2ncc3c(c(-c4ccc(C#N)cc4)nn3C)c2cc1OC(C(=O)O)c1ccccc1` (centres unmarked) [Compound 20, [1-(4-Cyanophenyl)-7-methoxy-3-methyl-3H-pyrazolo[3,4-c]quinolin-8-yloxy]phenylacetic acid] cannot be ordered by IC50: < 100 nM for the first, < 100 nM for the second.

First: COc1cc2ncc3c(c(-c4ccc(C#N)cc4)nn3C)c2cc1OCc1ccccc1C#N [Compound 14, 4-[8-(2-Cyanobenzyloxy)-7-methoxy-3-methyl-8-3H-pyrazolo[3,4-c]quinolin-1-yl]-benzonitrile]
Second: COc1cc2ncc3c(c(-c4ccc(C#N)cc4)nn3C)c2cc1OCc1ccncc1 [Compound 11, 4-[7-Methoxy-3-methyl-8-(pyridin-4-ylmethoxy)-3H-pyrazolo[3,4-c]quinolin-1-yl]-benzonitrile]
The IC50 of the first is higher: 100 to 500 nM for the first, < 100 nM for the second. The second is the more potent here.

First: COc1cc2ncc3c(c(-c4ccc(C#N)cc4)nn3CC(C)C)c2cc1OC [Compound 61, 4-(3-lsobutyl-7,8-dimethoxy-3H-pyrazolo[3,4-c]quinolin-1-yl)benzonitrile]
Second: CCCn1nc(-c2ccc(C#N)cc2)c2c3cc(OC)c(OC)cc3ncc21 [Compound 59, 4-(7,8-Dimethoxy-3-propyl-3H-pyrazolo[3,4-c]quinolin-1-yl)-benzonitrile]
The IC50 of the first is higher: > 500 nM for the first, 100 to 500 nM for the second.

First: COc1cc2ncc3c(c(-c4ccc(C#N)cc4)nn3CC#N)c2cc1OC [Compound 66, 4-(3-Cyanomethyl-7,8-dimethoxy-3H-pyrazolo[3,4-c]-quinolin-1-yl)benzonitrile]
Second: COc1cc2ncc3c(c(-c4ccc(C#N)cc4)nn3C#N)c2cc1OC [Compound 65, 1-(4-Cyanophenyl)-7,8-dimethoxypyrazolo[3,4-c]-quinoline-3-carbonitrile]
The IC50 of the first is lower: < 100 nM for the first, 100 to 500 nM for the second.

`COc1cc2ncc3c(c(-c4ccc(C#N)cc4)nn3C)c2cc1OC(C(=O)NCCS(N)(=O)=O)c1ccc(F)cc1` (centres unmarked) [Compound 52, 2-[1-(4-Cyano-phenyl)-7-methoxy-3-methyl-3H-pyrazolo-[3,4-c]quinolin-8-yl-oxy]-2-(4-fluoro-phenyl)-N-(2-sulfamoylethyl)-acetamide] and `COc1cc2ncc3c(c(-c4ccc(C#N)cc4)nn3C)c2cc1OC(C(=O)NCCN(C)C)c1ccc(F)cc1` (centres unmarked) [Compound 49, 2-[1-(4-Cyano-phenyl)-7-methoxy-3-methyl-3H-pyrazolo-[3,4-c]quinolin-8-yl-oxy]-N-(2-dimethyl-aminoethyl)-2-(4-fluorophenyl)-acetamide] fall in the same range of IC50: 100 to 500 nM for the first, 100 to 500 nM for the second.

`COc1cc2ncc3n[nH]c(-c4ccc(C#N)c(C(=O)O)c4)c3c2cc1OC` [Compound 73, 2-Cyano-5-(7,8-dimethoxy-3H-pyrazolo[3,4-c]quinolin-1-yl)benzoic acid] and `COc1cc2ncc3[nH]nc(-c4ccc(C#N)c(Cl)c4)c3c2cc1OC` [Compound 7, 2-Chloro-4-(7,8-dimethoxy-3H-pyrazolo-[3,4-c]quinolin-1-yl)-benzonitrile] cannot be ordered by IC50: < 100 nM for the first, < 100 nM for the second.

First: COc1cc2ncc3c(c(-c4ccc(C#N)cc4)nn3C)c2cc1OC [Compound 2, 4-(7,8-Dimethoxy-3-methyl-3H-pyrazolo-[3,4-c]quinolin-1-yl)-benzonitrile]
Second: CCCCn1nc(-c2ccc(C#N)cc2)c2c3cc(OC)c(OC)cc3ncc21 [Compound 58, 4-(3-Butyl-7,8-dimethoxy-3H-pyrazolo[3,4-c]quinolin-1-yl)-benzonitrile]
The IC50 of the first is lower: < 100 nM for the first, > 500 nM for the second.

First: COc1cc2ncc3c(c(-c4ccc(C#N)cc4)nn3C(F)F)c2cc1OC [Compound 69, 4-(3-Difluoromethyl-7,8-dimethoxy-3H-pyrazolo[3,4-c]-quinolin-1-yl)benzonitrile]
Second: COc1cc2ncc3c(c(-c4ccc(C#N)cc4)nn3CC(N)=O)c2cc1OC [Compound 68, 2-[1-(4-Cyanophenyl)-7,8-dimethoxypyrazolo[3,4-c]-quinolin-3-yl]acetamide]
The IC50 of the first is lower: < 100 nM for the first, 100 to 500 nM for the second. The first is the more potent here.

`COc1cc2ncc3c(c(-c4ccc(C#N)cc4)nn3C)c2cc1OC(C(=O)NC(=N)N)c1ccc(F)cc1` (centres unmarked) [Compound 54, N-[2-[1-(4-Cyano-phenyl)-7-methoxy-3-methyl-3H-pyrazolo-[3,4-c]quinolin-8-yl-oxy]-2-(4-fluoro-phenyl)acetyl]-guanidine] and `COc1cc2ncc3c(c(-c4ccc(C#N)cc4)nn3C)c2cc1O[C@@H](C(N)=O)c1ccc(F)cc1` [Compound 9, (R)-2-[1-(4-Cyanophenyl)-7-methoxy-3-methyl-3H-pyrazolo[3,4-c]quinolin-8-yloxy]-2-(4-fluorophenyl)-acetamide] cannot be ordered by IC50: < 100 nM for the first, < 100 nM for the second.

`COc1cc2ncc3c(c(-c4ccc(C#N)cc4F)nn3C)c2cc1-c1cnc2ccccc2c1` [Compound 78, 3-Fluoro-4-(7-methoxy-3-methyl-8-quinolin-3-yl-3H-pyrazolo[3,4-c]-quinolin-1-yl)-benzonitrile] and `COc1cc2ncc3c(c(-c4ccc(C#N)cc4F)nn3C)c2cc1O` [Compound 6, 3-Fluoro-4-(8-hydroxy-7-methoxy-3-methyl-3H-pyrazolo[3,4-c]quinolin-1-yl)benzonitrile] cannot be ordered by IC50: < 100 nM for the first, < 100 nM for the second.

Compared with `COc1cc2ncc3c(c(-c4ccc(C#N)cc4)nn3C)c2cc1OCc1cccc(CN2CCN(C)CC2)c1` [Compound 44, 4-{7-Methoxy-3-methyl-8-[3-(4-methylpiperazin-1-yl-methyl)benzyloxy]-3H-pyrazolo[3,4-c]quinolin-1-yl}-benzonitrile], `COc1cc2ncc3c(c(-c4ccc(C#N)cc4)nn3C)c2cc1OCc1cccc(N(C)C)c1` [Compound 41, 4-[8-(3-Dimethylamino-benzyloxy)-7-methoxy-3-methyl-3H-pyrazolo[3,4-c]-quinolin-1-yl]benzonitrile] is lower in IC50: > 500 nM for the first, 100 to 500 nM for the second.

First: COc1cc2ncc3c(c(-c4ccc(C#N)cc4)nn3C)c2cc1OC(C(=O)NOCC#N)c1ccc(F)cc1 (centres unmarked) [Compound 51, N-Cyanomethoxy-2-[1-(4-cyanophenyl)-7-methoxy-3-methyl-3H-pyrazolo[3,4-c]-quinolin-8-yloxy]-2-(4-fluorophenyl)-acetamide]
Second: COc1cc2ncc3c(c(-c4ccc(C#N)cc4)nn3C)c2cc1OC(C(=O)O)c1ccc(F)cc1 (centres unmarked) [Compound 19, [1-(4-Cyanophenyl)-7-methoxy-3-methyl-3H-pyrazolo[3,4-c]quinolin-8-yloxy]-(4-fluorophenyl)acetic acid]
The IC50 of the first is higher: 100 to 500 nM for the first, < 100 nM for the second. The second is the more potent here.

`COc1cc2c(cc1OCCN(C)C)ncc1c2c(-c2ccc(C#N)cc2)nn1C` [Compound 46, 4-[7-(2-Dimethylamino-ethoxy)-8-methoxy-3-methyl-3H-pyrazolo[3,4-c]quinolin-1-yl]benzonitrile] and `COc1cc2c(cc1OCC(O)CO)ncc1c2c(-c2ccc(C#N)cc2)nn1C` (centres unmarked) [Compound 47, 4-[7-(2,3-Dihydroxypropoxy)-8-methoxy-3-methyl-3H - pyrazolo[3,4-c]quinolin-1-yl]-benzonitrile] cannot be ordered by IC50: > 500 nM for the first, > 500 nM for the second.

Compared with `COc1cc2ncc3c(c(-c4ccc(C#N)cc4)nn3C)c2cc1OS(=O)(=O)c1ccc(C)cc1` [Compound 24, 1-(4-Cyanophenyl)-7-methoxy-3-methyl-3H-pyrazolo[3,4-c]quinolin-8-yl toluene-4-sulfonate], `COc1cc2ncc3c(c(-c4ccc(C#N)cc4)nn3C)c2cc1OCc1ccc(CO)cc1` [Compound 27, 4-[8-(4-Hydroxymethyl-benzyloxy)-7-methoxy-3-methyl-3H-pyrazolo[3,4-c]-quinolin-1-yl]benzonitrile] is lower in IC50: 100 to 500 nM for the first, < 100 nM for the second.

`COc1cc2ncc3c(c(-c4ccc(C#N)cc4)nn3C)c2cc1OCc1ccc(-n2cncn2)cc1` [Compound 31, 4-[7-Methoxy-3-methyl-8-(4-1,2,4-triazol-1-ylbenzyloxy)-3H-pyrazolo[3,4-c]quinolin-1-yl]benzonitrile] and `COc1cc2ncc3c(c(-c4ccc(C#N)cc4)nn3C)c2cc1OCc1ccc(-n2cccn2)nc1` [Compound 29, 4-[7-Methoxy-3-methyl-8-(6-pyrazol-1-ylpyridin-3-ylmethoxy)-3H-pyrazolo-[3,4-c]quinolin-1-yl]-benzonitrile] cannot be ordered by IC50: > 500 nM for the first, > 500 nM for the second.

First: CCN1CCN(c2ccc(-c3nn(C)c4cnc5cc(OC)c(OC)cc5c34)cc2)CC1 [Compound 75, 1-[4-(4-Ethylpiperazin-1-yl)-phenyl]-7,8-dimethoxy-3-methyl-3H-pyrazolo[3,4-c]-quinoline]
Second: COCc1cc(-c2nn(C)c3cnc4cc(OC)c(OC)cc4c23)ccc1C#N [Compound 71, 4-(7,8-Dimethoxy-3-methyl-3H-pyrazolo[3,4-c]quinolin-1-yl)-2-methoxymethyl-benzonitrile]
The IC50 of the first is higher: 100 to 500 nM for the first, < 100 nM for the second. The second is the more potent here.

First: COc1cc2ncc3c(c(-c4ccc(C#N)cc4)nn3C)c2cc1OCc1cccc(-c2csc(C)n2)c1 [Compound 45, 4-{7-Methoxy-3-methyl-8-[3-(2-methylthiazol-4-yl)-benzyloxy]-3H-pyrazolo-[3,4-c]quinolin-1-yl}-benzonitrile]
Second: COc1cc2ncc3c(c(-c4ccc(C#N)cc4)nn3C)c2cc1OCc1cccnc1 [Compound 12, 4-[7-Methoxy-3-methyl-8-(pyridin-3-ylmethoxy)-3H-pyrazolo[3,4-c]quinolin-1-yl]-benzonitrile]
The IC50 of the first is higher: 100 to 500 nM for the first, < 100 nM for the second.

In the case of `COc1cc2ncc3[nH]nc(-c4ccc(C#N)cc4)c3c2cc1OC` [Compound 1, 4-(7,8-Dimethoxy-3H-pyrazolo[3,4-c]quinolin-1-yl)benzonitrile], the IC50 is reported as < 100 nM.
